According to the supplement of paper PMC7695840:
pIC50: −log10 of the molar value. Several values for one entry are separate records, joined by “and”; a condition that tells them apart may be missing. Identical values can stand only once. Counter-ions that a name gives are not always drawn.

Legend:
[1] = test system: Staphylococcus aureus MW2 delta-mecA (mecA-); test: IC50 (growth, competition assay); conditions: cefoxitin: subinhibitory
Outline: (§1)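 Signals from DsRed (540/590) and GFP (485/520) were scaled on every plate between single-strain control medians, with No Treatment then set to 0.5. The cells were a 1:1 mix of pre-induced fluorescent S. aureus MW2 strains with and without the resistance gene, grown unshaken for 20 h at 37 °C and 90% humidity in LB in 1536-well plates under a subinhibitory drug dose set each day. Each strain's IC50 was defined as the dose halving the No Treatment signal, or the maximal signal.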

[2] = test system: Staphylococcus aureus MW2 (mecA+); test: IC50 (growth, competition assay); conditions: cefoxitin: subinhibitory
Outline: as §1

Structure (SMILES) | pIC50 ([1]; fluorescent label: DsRed) | pIC50 ([1]; fluorescent label: GFP) | pIC50 ([2]; fluorescent label: DsRed) | pIC50 ([2]; fluorescent label: GFP)
O=C(/C=C/c1ccccc1)c1ccc(O)cc1O [2',4'-DIHYDROXYCHALCONE] | 4.73 | 4.77 | 4.04 | 3.95
Cc1cc(OCCCS(C)(=O)=O)cc(C)c1-c1cccc(COc2ccc3c(c2)OC[C@H]3CC(=O)O)c1 [TAK-875] | > 5.01 | > 5.01 and 4.91 | > 5.01 and 4.65 | 4.83 and 4.53
CCCCCCCCOc1ccccc1C(=O)Nc1ccc(C(=O)OCC[N+](C)(CC)CC)cc1 [Otilonium Bromide] | > 5.01 | > 5.01 | > 5.01 | > 5.01
O=C(/C=C/c1ccccc1)c1ccc(O)cc1 [4'-HYDROXYCHALCONE] | 4.71 | 4.71 | 4.11 | 4.00
CN1CCN(CCCN2c3ccccc3Sc3ccc(Cl)cc32)CC1 [COMPAZINE] | 4.47 | 4.25 | 3.86 | 4.25
C[C@H]1COc2c(N3CCN(C)CC3)c(F)cc3c(=O)c(C(=O)O)cn1c23 [LEVAQUIN] | > 5.01 | > 5.01 | > 5.01 | > 5.01
CN[C@@H]1C[C@@H](c2ccc(Cl)c(Cl)c2)c2ccccc21 [Indatraline hydrochloride] | 4.44 | 4.28 | 4.15 | 4.01
COc1ccc(NS(=O)(=O)c2sc3ccc(Cl)cc3c2C)cc1N1CCNCC1 | 4.64 | 4.78 | 3.99 | 3.97
N#CC(c1ccc(Cl)cc1)c1c(Cl)cc(-n2ncc(=O)[nH]c2=O)cc1Cl (centres undefined) [CLINACOX] | > 5.01 | > 5.01 | 4.82 | 4.64
CCc1oc2ccccc2c1C(=O)c1cc(Br)c(O)c(Br)c1 [DESURIC] | > 5.01 | > 5.01 | > 5.01 | > 5.01
COc1cc(C)c(C(=O)Oc2cc(C)c(C(=O)O)c(O)c2C)c(OC)c1C [DIFFRACTAIC ACID] | 4.89 | 4.80 | 4.51 | 4.56
CO[C@@]1(NC(=O)C(C(=O)O)c2ccc(O)cc2)C(=O)N2C(C(=O)O)=C(CSc3nnnn3C)CO[C@@H]21 (some centres undefined) [MOXAM] | > 5.01 | > 5.01 | 4.58 | 4.73
C#CC[C@H](c1nc2cc(Cl)ccc2c(=O)n1Nc1ccccc1)N(CCCN)C(=O)c1cccc(Cl)c1F [ARQ 621] | 4.62 | 4.95 | 4.05 | 3.98
COC(=O)c1c(C)c2c(c(C)c1O)OC(=O)c1c(C)c(Cl)c(O)c(Cl)c1O2 [LEOIDIN] | > 5.01 | > 5.01 | > 5.01 | > 5.01
Cc1nc2sccn2c(=O)c1CCN1CCC(=C(c2ccc(F)cc2)c2ccc(F)cc2)CC1 [Ritanserin] | 4.76 | 4.54 | 4.24 | 4.25
Cc1onc(-c2ccccc2Cl)c1C(=O)N[C@@H]1C(=O)N2[C@@H]1SC(C)(C)[C@@H]2C(=O)O [TEGOPEN] | > 5.01 | > 5.01 | > 5.01 | > 5.01
COCC(=O)O[C@]1(CCN(C)CCCc2nc3ccccc3[nH]2)CCc2cc(F)ccc2[C@@H]1C(C)C [Mibefradil dihydrochloride] | 4.79 | 4.95 | 4.39 | 4.28
CSc1ccc2c(c1)C(N1CCN(C)CC1)Cc1ccccc1S2 (centres undefined) [Methiothepin mesylate] | 4.67 | 4.72 | 4.25 | 4.26
CC1CC(OC(=O)C(O)c2ccccc2)CC(C)(C)C1 (centres undefined) [CYCLOSPASMOL] | 4.82 | 4.86 | 4.35 | 4.08
O=C1NC(=O)[C@@]2(CCOc3ccc(F)cc32)N1 [Sorbinil] | > 5.01 | > 5.01 | > 5.01 | > 5.01
CN1C[C@@H]2C[C@H]1CN2c1cc2c(cc1F)c(=O)c(C(=O)O)cn2C1CC1 [Danofloxacin Mesylate] | > 5.01 | > 5.01 | > 5.01 | > 5.01
O=C(O)CCCCC(CCSCc1ccccc1)SCc1ccccc1 (centres undefined) [CPI-613] | > 5.01 | > 5.01 | 4.81 | 4.82
CO/N=C(\C(=O)N[C@@H]1C(=O)N2C(C(=O)OCOC(=O)C(C)(C)C)=C(/C=C\c3scnc3C)CS[C@H]12)c1csc(N)n1 [SPECTRACEF] | > 5.01 | > 5.01 | 4.48 | 4.73

Structure (SMILES) | pIC50 ([1]; fluorescent label: DsRed) | pIC50 ([1]; fluorescent label: GFP) | pIC50 ([2]; fluorescent label: DsRed) | pIC50 ([2]; fluorescent label: GFP)
CC1(C)S[C@@H]2[C@H](NC(=O)[C@H](N)c3ccccc3)C(=O)N2[C@H]1C(=O)O [Ampicillin sodium] | > 5.01 | > 5.01 | > 5.01 | 4.82
C[C@@H](O)[C@H]1C(=O)N2C(C(=O)O)=C(S[C@@H]3CN[C@H](CNS(N)(=O)=O)C3)[C@H](C)[C@H]12 [Doripenem Hydrate] | 3.86 | 3.89 | < 3.82 | < 3.82
NCC(=O)Nc1ccc(-n2nc(C(F)(F)F)cc2-c2ccc3c(ccc4ccccc43)c2)cc1 | 5.05 and 4.84 | 5.46 and 4.83 | 4.67 and 4.68 | 4.53 and 4.83
COc1ccc(Cl)cc1NC(=O)Nc1cc(C)nc2ccccc12 [PQ 401] | 4.98 | 4.91 | 4.62 | 4.75
CC(=O)Oc1ccccc1C(=O)Nc1ncc([N+](=O)[O-])s1 [Nitazoxanide (Alinia, Annita)] | 4.66 | 4.60 | 4.26 | 4.24
CCC[C@@H]1C[C@@H](C(=O)N[C@@H]([C@H]2O[C@H](SC)[C@H](O)[C@@H](O)[C@H]2O)[C@@H](C)O)N(C)C1 [LINCOCIN] | > 5.01 | > 5.01 | > 5.01 | > 5.01
Cc1cc(F)c(Nc2ncnc3cc(OCc4ccccc4)ccc23)cc1O | 3.86 | < 3.82 | < 3.82 | 3.86
O=C1[C@H](CC[C@H](O)c2ccc(F)cc2)[C@@H](c2ccc(O)cc2)N1c1ccc(F)cc1 [Ezetimibe (Zetia)] | 4.60 | 4.83 | 4.10 | 3.97
CC(=O)OCC1=C(C(=O)O)N2C(=O)[C@@H](NC(=O)CSc3ccncc3)[C@H]2SC1 [CEFADYL] | > 5.01 | > 5.01 | > 5.01 | > 5.01
CCOC(=O)C1=C(C)NC(C)=C(C(=O)OC)C1c1cccc(Cl)c1Cl (centres undefined) [PLENDIL] | > 5.01 | > 5.01 | 4.52 | 4.52
C[C@H]1c2cccc(O)c2C(=O)C2=C(O)[C@]3(O)C(=O)C(C(N)=O)=C(O)[C@@H](N(C)C)[C@@H]3[C@@H](O)[C@@H]21 [PERIOSTAT] | > 5.01 | > 5.01 | > 5.01 | > 5.01
O=C(c1ccc(Nc2nccc(-c3cc4ccccc4s3)n2)cc1)N1CCC(N2CCCC2)CC1 [IKK-16] | 4.74 | 4.75 | 4.31 | 4.25
CC/C(=C(\c1ccccc1)c1ccc(OCCN(C)C)cc1)c1ccccc1 [Tamoxifen citrate] | > 5.01 | > 5.01 | 4.83 | 4.83
Cc1coc2c1C(=O)C(=O)c1c-2ccc2c1CCCC2(C)C [Tanshinone IIA (Tanshinone B)] | 5.43 and 4.86 |  | 5.10 and 4.45 | 4.39 and 4.48
Oc1ccc(Cl)c2cccnc12 [CLOXYQUIN] | 4.47 | > 5.01 | 4.57 | 4.05
CC=CC1=C(C(=O)O)N2C(=O)[C@@H](NC(=O)[C@H](N)c3ccc(O)cc3)[C@H]2SC1 [CEFZIL] | > 5.01 | > 5.01 | 3.95 | 3.96
Cc1nnc(SCC2=C(C(=O)O)N3C(=O)[C@@H](NC(=O)Cn4cnnn4)[C@H]3SC2)s1 [Cefazolin sodium] | > 5.01 | > 5.01 | > 5.01 | > 5.01
O=c1c2ccccc2[se]n1-c1ccccc1 [EBSELEN] | > 5.01 | > 5.01 | > 5.01 | > 5.01
C[C@@H](NCCCc1cccc(C(F)(F)F)c1)c1cccc2ccccc12 [AMG-073 HCl (Cinacalcet hydrochloride)] | 4.87 | > 5.01 | 4.31 | 4.26
CC[C@H](C)[C@H](N)C1=N[C@H](C(=O)N[C@@H](CC(C)C)C(=O)N[C@H](CCC(=O)O)C(=O)N[C@H](C(=O)N[C@H]2CCCCNC(=O)[C@H](CC(N)=O)NC(=O)[C@@H](CC(=O)O)NC(=O)[C@H](Cc3cnc[nH]3)NC(=O)[C@@H](Cc3ccccc3)NC(=O)[C@H]([C@@H](C)CC)NC(=O)[C@@H](CCCN)NC2=O)[C@@H](C)CC)CS1 [BACITRACIN] | 4.42 | 4.23 | < 3.82 | < 3.82
Cc1ccc(Sc2ccccc2N2CCNCC2)c(C)c1 | > 5.01 | 4.84 | 4.36 | 4.27
C=CCc1ccccc1OCC(O)CNC1(C)CCC(C(C)(C)NC(=O)CBr)CC1 (centres undefined) [Bromoacetyl alprenolol menthane] | > 5.01 | > 5.01 | 4.83 | 4.85
